From article PMC10150365 (Journal of Medicinal Chemistry, 2023)
Values after ≈ are worked out from the molar mass of the structure shown. Values joined by “and” are separate entries in the source; they are usually repeats but may differ in a detail not shown here. Identical values can stand only once. Like-named read-outs stand apart in the source and are kept apart here. Marks after values point to notes of the source that are not given here.

Legend:
physchem [1] = test: physchem
SK-OV-3 = test: cells; assay type: cell-based, human; settings: Homo sapiens
physchem [2] = settings: pH 7.4
physchem [3] = settings: pH 7.4; remark: listed apart in the source
[4] = Plasma protein binding and blood-to-plasma ratio
[5] = Free fraction in CellTiter-Blue assay medium (dialysis); assay type: in vitro ADME; settings: dialysis from CellTiter-Blue assay medium; 90% CI
in vitro [6] = assay type: in vitro ADME; settings: mouse
in vitro [7] = assay type: in vitro ADME, mouse; settings: male, CD1, mouse, microsomes, pH 7.4; n = 1, fraction unbound assumed 1; read-out: Microsome Clint, mouse (MLM)
in vitro [8] = assay type: in vitro ADME; settings: both sexes, human, microsomes, pH 7.4; n = 1, fraction unbound assumed 1; read-out: Microsome Clint, human (HLM)
in vitro [9] = assay type: in vitro ADME; settings: male, Sprague Dawley, rat, microsomes, pH 7.4; n = 1, fraction unbound assumed 1; read-out: Microsome Clint, rat (RLM)
[10] = SK-OV-3, 96 h, read-out: SK-OV-3 pGI50 ± SEM (n) (converted)
[11] = SK-OV-3, 96 h, CellTiter-Blue, geometric mean, read-out: SK-OV-3 GI50
[12] = female, BALB/c, mouse, in vivo, po, 5 mg/kg

With `CC(C)NCC(O)COc1cccc2ccccc12` (stereo not drawn) [Propranolol] as the compound, how does the “FaSSGF Concentration, replicates 1-3” value (pH 1.6, individual replicates) read?
The value was 1.246 mg/mL and 1.094 mg/mL and 1.002 mg/mL.

And the “FaSSIF Concentration, replicates 1-3” value (pH 6.5, individual replicates)?
Its value is 0.853 mg/mL and 1.047 mg/mL and 0.931 mg/mL.

What about the “FeSSIF Concentration, replicates 1-3” value (pH 6.5, individual replicates) of the same compound?
Its value is 1.669 mg/mL and 1.812 mg/mL and 1.465 mg/mL.

And the solubility thermodynamic (physchem [1]; pH 1.6, Thermodynamic solubility FaSSGF (mean), pH 1.6, 37 °C, 1 mg/mL (top limit of assay))?
Its solubility thermodynamic is 1110 µg/mL (≈ 4.3 mM).

What about the solubility thermodynamic (physchem [1]; pH 6.5, Thermodynamic solubility FaSSIF (mean), pH 6.5, 37 °C, 1 mg/mL) of the same compound?
Its solubility thermodynamic is 944 µg/mL (≈ 3.64 mM).

For `CN1CCN(Cc2ccc3cc(C(=O)Nc4cc(NC(=O)c5ccc6c(c5)OCCO6)ccc4Cl)ccc3n2)CC1` [Compound 20, N-(2-Chloro-5-(2,3-dihydrobenzo[b][1,4]dioxine-6-carboxamido)phenyl)-2-((4-methylpiperazin-1-yl)methyl)quinoline-6-carboxamide], which GI50 (SK-OV-3; [10]) is on record?
Its GI50 is 19.1 nM.

And the GI50 (SK-OV-3; [11])?
The GI50 was 19 nM.

What about the chromatographic logD (physchem [2]) of the same compound?
Its chromatographic logD is 2.1.

What about the solubility kinetic at 2 h, 100 µM (physchem [3]) of the same compound?
Its solubility kinetic at 2 h, 100 µM is 30 µM (≈ 17.2 µg/mL).

Which fub ([4]; BALB/c mouse blood, fub = fup/B:P) does the source give for `CC(C)N1CCN(Cc2ccc3cc(C(=O)Nc4cc(NC(=O)c5ccc6c(c5)OCCO6)ccc4Cl)ccc3n2)CC1` [Compound 18, N-(2-Chloro-5-(2,3-dihydrobenzo[b][1,4]dioxine-6-carboxamido)phenyl)-2-((4-isopropylpiperazin-1-yl)methyl)quinoline-6-carboxamide] here?
The fub was 0.011.

What about the “Plasma, fup” value ([4]; BALB/c mouse, 90% CI) of the same compound?
The value was 0.012 (0.014-0.010).

What about the “Assay medium, fua” value [5] of the same compound?
The value was 0.16 (0.18-0.15).

What about the GI50 (SK-OV-3; [10]) of the same compound?
Its GI50 is 14.8 nM.

And the GI50 (SK-OV-3; [11])?
Its GI50 is 15 nM.

What about the Fmax (Mouse blood PK (BALB/c); BALB/c mice) of the same compound?
The Fmax was 63%.

What about the “iv Cltb” value (Mouse blood PK (BALB/c); BALB/c mice, iv 5 mg/kg (18: 1 mg/kg), 90% CI) of the same compound?
The value was 33 (35–31) mL/min/kg.

What about the “Free Cav^0–24h” value (Mouse blood PK (BALB/c); BALB/c mice, po, AUC^inf/24*fub) of the same compound?
The value was 1.6 nM.

And the CLu (Mouse blood PK (BALB/c); BALB/c mice, CLtb/fub)?
Its CLu is 3000 mL/min/kg.

What about the Vdu (Mouse blood PK (BALB/c); BALB/c mice, Vss/fub) of the same compound?
The Vdu was 450 L/kg.

What about the Vd (Mouse blood PK (BALB/c); female, BALB/c, mouse, in vivo, iv) of the same compound?
Its Vd is 4.9 L/kg.

What about the half-life at 24 h (Mouse blood PK (BALB/c); female, BALB/c, mouse, in vivo, iv, 1 mg/kg) of the same compound?
The half-life at 24 h was 120 min.

And the Cmax (Mouse blood PK (BALB/c); [12])?
The Cmax was 550 nM.

What about the Tmax at 24 h (Mouse blood PK (BALB/c); [12]) of the same compound?
The Tmax at 24 h was 1.7 h.

What about the bioavailability at 24 h (Mouse blood PK (BALB/c); [12]) of the same compound?
The bioavailability at 24 h was 63%.

What about the AUC (Mouse blood PK (BALB/c); female, BALB/c, mouse, in vivo, po, 5 mg/kg, AUCu^0–6h, BALB/c mice, AUC*fub) of the same compound?
Its AUC is 0.026 µM·h.

And the AUC (Mouse blood PK (BALB/c); female, BALB/c, mouse, in vivo, po, 5 mg/kg, po AUC^0–6h, BALB/c mice, po 5 mg/kg, 90% CI)?
The AUC was 2.4 µM·h.

What about the hepatocyte CLint at 1 h, 1 µM (in vitro [6]; hepatocytes, n = 1, read-out: Mouse Heps CLint) of the same compound?
Its hepatocyte CLint at 1 h, 1 µM is 28 µL/min/1e6 cells.

And the “Pred. in vivo CLu from Heps” value (in vitro [6]; fraction unbound in assay assumed 0.4 or 0.2)?
The value was 930 ^i mL/min/kg.

What about the chromatographic logD (physchem [2]) of the same compound?
Its chromatographic logD is 2.3.

And the solubility kinetic at 2 h, 100 µM (physchem [3])?
Its solubility kinetic at 2 h, 100 µM is 70 µM (≈ 42 µg/mL).

Which results are given for `Cc1ccc(NC(=O)c2ccc3c(c2)OCCO3)cc1NC(=O)c1ccc2nc(CN3CCCC3)ccc2c1` [Compound 11, N-(5-(2,3-Dihydrobenzo[b][1,4]dioxine-6-carboxamido)-2-methylphenyl)-2-(pyrrolidin-1-ylmethyl)quinoline-6-carboxamide]?
microsomal CLint (in vitro [7]): 21 µL/min/mg; GI50 (SK-OV-3; [10]): 6.17 nM; GI50 (SK-OV-3; [11]): 6.2 nM; chromatographic logD (physchem [2]): 1.9; microsomal CLint at 0.75 h, 1 µM (in vitro [8]): 23 µL/min/mg; microsomal CLint at 0.75 h, 1 µM (in vitro [9]): 20 µL/min/mg; solubility kinetic at 2 h, 100 µM (physchem [3]): 40 µM (≈ 20.9 µg/mL)

For `Cc1ccc(NC(=O)c2ccc3c(c2)OCCO3)cc1NC(=O)c1ccc2nc(CN3CCCCC3)ccc2c1` [Compound 14, N-(5-(2,3-Dihydrobenzo[b][1,4]dioxine-6-carboxamido)-2-methylphenyl)-2-(piperidin-1-ylmethyl)quinoline-6-carboxamide], which GI50 (SK-OV-3; [10]) is on record?
The GI50 was 21.9 nM.

What about the GI50 (SK-OV-3; [11]) of the same compound?
The GI50 was 73 nM.

What about the solubility kinetic at 2 h, 100 µM (physchem [3]) of the same compound?
Its solubility kinetic at 2 h, 100 µM is 2 µM (≈ 1.07 µg/mL).

Which results are given for `O=C(Nc1ccc(Cl)c(NC(=O)c2ccc3nc(CN4CCNCC4)ccc3c2)c1)c1ccc2c(c1)OCCO2` [Compound 19, N-(2-Chloro-5-(2,3-dihydrobenzo[b][1,4]dioxine-6-carboxamido)phenyl)-2-(piperazin-1-ylmethyl)quinoline-6-carboxamide]?
GI50 (SK-OV-3; [10]): 11.5 nM; GI50 (SK-OV-3; [11]): 12 nM
